# Measurements: patent US11110082B2, “Tyrosine kinase inhibitors” (Rigel Pharmaceuticals, Inc., priority 2016, dated 2021)
# Target: T1, MerTK (Homo sapiens, UniProt Q12866)
# T1 construct: Seed HUVECs (10K cells/well) in EBM-2 complete media; host or cells: HUVEC (primary human umbilical vein endothelial cells)
# T1 sequence (Q12866 21-999): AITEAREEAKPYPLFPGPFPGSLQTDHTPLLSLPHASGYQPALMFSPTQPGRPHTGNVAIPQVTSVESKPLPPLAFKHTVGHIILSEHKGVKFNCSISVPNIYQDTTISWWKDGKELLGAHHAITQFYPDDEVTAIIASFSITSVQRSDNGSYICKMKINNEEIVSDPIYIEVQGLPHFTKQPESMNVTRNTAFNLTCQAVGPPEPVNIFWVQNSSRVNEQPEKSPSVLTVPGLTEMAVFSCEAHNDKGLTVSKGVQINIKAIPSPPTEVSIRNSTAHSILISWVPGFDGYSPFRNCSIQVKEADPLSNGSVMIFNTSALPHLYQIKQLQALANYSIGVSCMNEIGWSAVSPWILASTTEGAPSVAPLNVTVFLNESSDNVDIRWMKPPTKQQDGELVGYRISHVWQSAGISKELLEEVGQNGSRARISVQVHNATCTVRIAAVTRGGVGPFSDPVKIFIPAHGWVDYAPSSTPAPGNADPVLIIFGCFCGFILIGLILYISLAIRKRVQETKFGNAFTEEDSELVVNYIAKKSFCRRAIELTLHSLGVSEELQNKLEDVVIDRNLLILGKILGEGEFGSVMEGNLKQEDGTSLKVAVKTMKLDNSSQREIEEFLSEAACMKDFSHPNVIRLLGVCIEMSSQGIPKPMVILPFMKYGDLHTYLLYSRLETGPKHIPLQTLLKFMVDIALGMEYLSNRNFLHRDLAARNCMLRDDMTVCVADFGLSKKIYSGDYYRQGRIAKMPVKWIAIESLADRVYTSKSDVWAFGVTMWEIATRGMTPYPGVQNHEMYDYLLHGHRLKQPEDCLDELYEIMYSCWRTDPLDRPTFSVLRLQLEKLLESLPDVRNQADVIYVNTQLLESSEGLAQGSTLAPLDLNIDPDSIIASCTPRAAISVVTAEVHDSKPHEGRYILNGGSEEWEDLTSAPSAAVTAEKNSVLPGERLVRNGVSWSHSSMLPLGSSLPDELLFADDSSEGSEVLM
# Assay: PAKT HTRF-HUVEC assay (pAkt Ser473 HTRF after anti-human MerTK-XL stimulation)
# Assay type: cell-based
# Details: HUVEC cells, 1 hour compound, stimulated with anti-human MerTK-XL 1 ug/mL for 10 minutes, read-out: inhibition of MerTK
# Method: Example 4: PAKT HTRF-HUVEC Assay Phospho Akt (Ser473) Assay kit-10,000 tests (Cisbio US, 64[…]) HUVEC cells (Lonza, CC-2519) Anti-human MerTK antibody (Clone 125518) (R&D Systems, MAB8912) Method Seed HUVECs (10K cells/well) in EBM-2 complete media (EBM-2 basal medium plus EGM-2 BulletKit supplements) overnight at 37° C., 5% CO2 in Costar 96-well white clear-bottom plates. Remove culture media and starve cells for 3-4 hours in 50 μL/well EBM-2 basal medium. Perform serial dilution of compounds in DMSO from 2.5 mM in 4-fold dilutions, and then dilute 1:125 in EBM-2 basal media. Mix 50 μL/well 2x compounds with 50 μL/well HUVECs in duplicate in Costar 96-well white clear-bottom plates. Incubate plates for 1 hour at 37° C., 5% CO2. Cross-link anti-human MerTK antibody to Biotin-SP-conjugated anti-mouse IgG antibody (1:1) to give final concentrations of 5 ug/mL of anti-human MerTK-XL. Stimulate HUVECs with 25 μL/well 5x anti-human MerTK-XL to give final concentrations of 1 ug/mL for 10 minutes at 37° C., 5% CO2. Completely remove media and lyse HUVECs with 40 uL/WELL per well of Cisbio HTRF 1× lysis buffer. Performed pAkt(Ser473) HTRF assay in ProxiPlate-384 Plus, white 384-shallow well microplate according to the vendor protocol and read plates with a SpectralMax Paradigm plate reader. Enter the HTRF values into Athena (Rigel) for curve fitting, EC50 calculation, and database storage.
row,EC50,SMILES
1,0.0459 µM,"O=c1c2cc(CN3CCOCC3)ccc2c2cnc(NCCC3CC3)nc2n1[C@H]1CC[C@H](O)CC1 [Compound 27, trans-3-((2-Cyclopropylethyl)amino)-5-(4-hydroxycyclohexyl)-8-(morpholinomethyl)pyrimido [4,5-c]isoquinolin-6(5H)-one]"
2,0.0366 µM,"CN1CCN(Cc2ccc3c(c2)c(=O)n(C2CCC(C)(O)CC2)c2nc(NCC4CC4)ncc32)CC1 (stereo not drawn) [Compound 28, trans-3-((Cyclopropylmethyl)amino)-5-(4-hydroxy-4-methylcyclohexyl)-8-((4-methylpiperazin-1-yl)methyl)pyrimido[4,5-c]isoquinolin-6(5H)-one]"
3,0.0062 µM,"CN1CCN(Cc2ccc3c(c2)c(=O)n([C@H]2CC[C@](C)(O)CC2)c2nc(NCCC4CC4)ncc32)CC1 [Compound 29, trans-3-((2-Cyclopropylethyl)amino)-5-(4-hydroxy-4-methylcyclohexyl)-8-((4-methylpiperazin-1-yl)methyl)pyrimido[4,5-c]isoquinolin-6(5H)-one]"
4,0.0183 µM,"CC(C)N1CCN(Cc2ccc3c(c2)c(=O)n([C@H]2CC[C@H](O)CC2)c2nc(NCC4CC4)ncc32)CC1 [Compound 30, trans-3-((Cyclopropylmethyl)amino)-5-(4-hydroxycyclohexyl)-8-((4-isopropylpiperazin-1-yl)methyl)pyrimido[4,5-c]isoquinolin-6(5H)-one]"
5,0.0125 µM,"CC(C)N1CCN(Cc2ccc3c(c2)c(=O)n([C@H]2CC[C@](C)(O)CC2)c2nc(NCC4CC4)ncc32)CC1 [Compound 31, trans-3-((Cyclopropylmethyl)amino)-5-(4-hydroxy-4-methylcyclohexyl)-8-((4-isopropylpiperazin-1-yl)methyl)pyrimido[4,5-c]isoquinolin-6(5H)-one]"
6,0.0065 µM,"CC(C)N1CCN(Cc2ccc3c(c2)c(=O)n(C2CCC(C)(O)CC2)c2nc(NCCC4CC4)ncc32)CC1 (stereo not drawn) [Compound 32, trans-3-((2-Cyclopropylethyl)amino)-5-(4-hydroxy-4-methylcyclohexyl)-8-((4-isopropylpiperazin-1-yl)methyl)pyrimido[4,5-c]isoquinolin-6(5H)-one]"
7,0.0046 µM,"CC(C)N1CCN(Cc2ccc3c(c2)c(=O)n([C@H]2CC[C@H](O)CC2)c2nc(NCC4CCC4)ncc32)CC1 [Compound 33, trans-3-((Cyclobutylmethyl)amino)-5-(4-hydroxycyclohexyl)-8-((4-isopropylpiperazin-1-yl)methyl)pyrimido[4,5-c]isoquinolin-6(5H)-one]"
8,0.0074 µM,"CN1CCN(Cc2ccc3c(c2)c(=O)n([C@H]2CC[C@](C)(O)CC2)c2nc(NCC4CCC4)ncc32)CC1 [Compound 34, trans-3-((Cyclobutylmethyl)amino)-5-(4-hydroxy-4-methylcyclohexyl)-8-((4-methylpiperazin-1-yl)methyl)pyrimido[4,5-c]isoquinolin-6(5H)-one]"
9,0.0467 µM,"O=c1c2cc(CN3CCN(C4COC4)CC3)ccc2c2cnc(NCC3CC3)nc2n1[C@H]1CC[C@H](O)CC1 [Compound 35, trans-3-((Cyclopropylmethyl)amino)-5-(4-hydroxycyclohexyl)-8-((4-(oxetan-3-yl)piperazin-1-yl)methyl)pyrimido[4,5-c]isoquinolin-6(5H)-one]"
10,0.0168 µM,"C[C@]1(O)CC[C@H](n2c(=O)c3cc(CN4CCN(C5COC5)CC4)ccc3c3cnc(NCC4CC4)nc32)CC1 [Compound 36, trans-3-((Cyclopropylmethyl)amino)-5-(4-hydroxy-4-methylcyclohexyl)-8-((4-(oxetan-3-yl)piperazin-1-yl)methyl)pyrimido[4,5-c]isoquinolin-6(5H)-one]"
11,0.0538 µM,"O=c1c2cc(CN3CCC(N4CCCC4)CC3)ccc2c2cnc(NCC3CC3)nc2n1[C@H]1CC[C@H](O)CC1 [Compound 37, trans-3-((Cyclopropylmethyl)amino)-5-(4-hydroxycyclohexyl)-8-((4-(pyrrolidin-1-yl)piperidin-1-yl)methyl)pyrimido[4,5-c]isoquinolin-6(5H)-one]"
12,0.0333 µM,"C[C@]1(O)CC[C@H](n2c(=O)c3cc(CN4CCC(N5CCCC5)CC4)ccc3c3cnc(NCC4CC4)nc32)CC1 [Compound 38, trans-3-((Cyclopropylmethyl)amino)-5-(4-hydroxy-4-methylcyclohexyl)-8-((4-(pyrrolidin-1-yl)piperidin-1-yl)methyl)pyrimido[4,5-c]isoquinolin-6(5H)-one]"
13,0.0646 µM,"O=c1c2cc(CN3CCn4ncnc4C3)ccc2c2cnc(NCC3CC3)nc2n1[C@H]1CC[C@H](O)CC1 [Compound 39, trans-3-((Cyclopropylmethyl)amino)-8-((5,6-dihydro-[1,2,4]triazolo[1,5-a]pyrazin-7(8H)-yl)methyl)-5-(4-hydroxycyclohexyl)pyrimido [4,5-c]isoquinolin-6(5H)-one]"
14,0.0507 µM,"O=c1c2cc(CN3CCN(CC(F)(F)F)CC3)ccc2c2cnc(NCC3CC3)nc2n1[C@H]1CC[C@H](O)CC1 [Compound 40, trans-3-((Cyclopropylmethyl)amino)-5-(4-hydroxycyclohexyl)-8-((4-(2,2,2-trifluoroethyl)piperazin-1-yl)methyl)pyrimido[4,5-c]isoquinolin-6(5H)-one]"
15,0.0513 µM,"O=c1c2cc(CN3CCN(CC(F)F)CC3)ccc2c2cnc(NCC3CC3)nc2n1[C@H]1CC[C@H](O)CC1 [Compound 43, trans-3-((Cyclopropylmethyl)amino)-8-((4-(2,2-difluoroethyl)piperazin-1-yl)methyl)-5-(4-hydroxycyclohexyl)pyrimido[4,5-c]isoquinolin-6(5H)-one]"
16,0.066 µM,"CCCCNc1ncc2c3ccc(CN4CCNCC4)cc3c(=O)n([C@H]3CC[C@H](O)CC3)c2n1 [Compound 44, trans-3-(Butylamino)-5-(4-hydroxycyclohexyl)-8-(piperazin-1-ylmethyl)pyrimido[4,5-c]isoquinolin-6(5H)-one]"
17,0.149 µM,"O=c1c2cc(CN3CCOCC3)ccc2c2cnc(NCC3CC3)nc2n1[C@H]1CC[C@H](O)CC1 [Compound 45, trans-3-((Cyclopropylmethyl)amino)-5-(4-hydroxycyclohexyl)-8-(morpholinomethyl)pyrimido [4,5-c]isoquinolin-6(5H)-one]"
18,0.116 µM,"C[C@]1(O)CC[C@H](n2c(=O)c3cc(CN4CCOCC4)ccc3c3cnc(NCC4CC4)nc32)CC1 [Compound 46, trans-3-((Cyclopropylmethyl)amino)-5-(4-hydroxy-4-methylcyclohexyl)-8-(morpholinomethyl)pyrimido [4,5-c]isoquinolin-6(5H)-one]"
19,0.221 µM,"O=c1c2cc(CN3CCS(=O)(=O)CC3)ccc2c2cnc(NCC3CC3)nc2n1[C@H]1CC[C@H](O)CC1 [Compound 49, trans-3-((Cyclopropylmethyl)amino)-8-((1,1-dioxidothiomorpholino)methyl)-5-(4-hydroxycyclohexyl)pyrimido [4,5-c]isoquinolin-6(5H)-one]"
20,0.0259 µM,"CCOC(=O)C1CCN(Cc2ccc3c(c2)c(=O)n([C@H]2CC[C@H](O)CC2)c2nc(NCC4CC4)ncc32)CC1 [Compound 50, trans-Ethyl 1-((3-((Cyclopropylmethyl)amino)-5-(4-hydroxycyclohexyl)-6-oxo-5,6-dihydropyrimido[4,5-c]isoquinolin-8-yl)methyl)piperidine-4-carboxylate]"
21,0.401 µM,"O=c1c2cc(CN3CC[S+]([O-])CC3)ccc2c2cnc(NCC3CC3)nc2n1[C@H]1CC[C@H](O)CC1 [Compound 52, trans-3-((cyclopropylmethyl)amino)-5-(4-hydroxycyclohexyl)-8-((1-oxidothiomorpholino)methyl) pyrimido[4,5-c]isoquinolin-6(5H)-one]"
